Reference: ChEMBL document CHEMBL1122462, “Potential antiatherosclerotic agents. 4. [(Functionalized-alkyl)amino]benzoic acid analogues of cetaben” (1983)

Key:
[1] = biological target: T1, Sterol O-acyltransferase 1 (Rattus norvegicus) (UniProt O70536); experiment: In vitro inhibitory activity against acyl coenzyme A:cholesterol acyltransferase; parameters: concentration or dose not given beside the values; details: concentration not given here
T1 sequence (whole entry): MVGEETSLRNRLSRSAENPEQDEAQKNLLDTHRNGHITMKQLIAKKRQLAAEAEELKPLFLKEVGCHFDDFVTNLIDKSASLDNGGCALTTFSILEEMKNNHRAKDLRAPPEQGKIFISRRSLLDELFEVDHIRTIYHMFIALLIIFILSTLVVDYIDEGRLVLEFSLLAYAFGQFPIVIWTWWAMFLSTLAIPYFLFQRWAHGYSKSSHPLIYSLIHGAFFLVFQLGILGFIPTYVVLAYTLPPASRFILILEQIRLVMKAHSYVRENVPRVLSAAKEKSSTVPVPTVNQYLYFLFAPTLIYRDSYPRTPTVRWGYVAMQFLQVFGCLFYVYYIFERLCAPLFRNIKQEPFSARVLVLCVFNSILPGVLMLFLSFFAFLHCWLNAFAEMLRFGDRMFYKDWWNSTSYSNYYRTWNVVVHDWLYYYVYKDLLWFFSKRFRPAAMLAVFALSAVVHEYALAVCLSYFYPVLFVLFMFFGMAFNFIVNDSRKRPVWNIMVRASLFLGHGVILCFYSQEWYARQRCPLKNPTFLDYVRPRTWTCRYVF

[2] = tested on: Rattus norvegicus; experiment: In vivo Triglyceride lowering activity at dose as 0.03 % of the diet; assay type: functional
[3] = tested on: Rattus norvegicus; experiment: In vivo sterol lowering activity, dosed as 0.03 % of the diet; assay type: functional
[4] = tested on: Rattus norvegicus; experiment: In vivo sterol lowering activity at dose of 0.10 % of the diet; assay type: functional
[5] = tested on: Rattus norvegicus; experiment: In vivo Triglyceride lowering activity at dose as 0.01 % of the diet; assay type: functional
[6] = tested on: Rattus norvegicus; experiment: In vivo Triglyceride lowering activity at a dose of 0.10 % of the diet; assay type: functional
[7] = tested on: Rattus norvegicus; experiment: In vivo Sterol lowering activity at dose as 0.01% of the diet; assay type: functional

inhibition [1] [%] | Structure (SMILES) | triglyceride lowering activity [2] [%] | serum sterol level, percent of control [3] [%] | serum sterol level, % of control [4] [%] | serum triglyceride level (% of control) [5] [%] | serum triglyceride level (% of control) [6] [%] | serum sterol level, percent of control [7] [%]
< 40 | CCCCSCCCCCCCCCCCNc1ccc(C(=O)O)cc1 | <71 | 91 | <78 | 79 | <62 | 91
15 | CCCCCCCCCCCCCCCCN(CC(=O)O)c1ccc(C(=O)O)cc1 | 100 | 109 | 93 | 105 | 99 | 105
< 15 | CCCC[S+]([O-])CCCCCCCCCCCNc1ccc(C(=O)O)cc1 (stereo not given) | 94 | 95 | 91 | 87 | <66 | 106
7 | CCOC(=O)c1ccc(NCC(F)(F)C(F)(F)C(F)(F)C(F)(F)C(F)(F)C(F)(F)C(F)(F)F)cc1 | <43 | <65 | <44 | <47 | <35 | <81
17 | CCOC(=O)c1ccc(NCCCCCCCCCCC[Si](C)(C)C)cc1 | 111 | 87 | <57 | 113 | <78 | 85
0 | CCCCCCCCCCC(N)CCCCCNc1ccc(C(=O)OCC)cc1 (stereo not given) | 70 | 99 | 84 | 68 | <45 | 97
< 19 | CCCCCCCCCCC(=O)CCCCCNc1ccc(C(=O)OCC)cc1 | 86 | 104 | 107 | 103 | 81 | 109
10 | CCOC(=O)c1ccc(NCCCCCCCCCCCCCCCCBr)cc1 | 84 | 98 | 93 | 100 | 100 | 99
11 | CCCCCCCCCCCCCCCCN(CC(=O)OCC)c1ccc(C(=O)OC)cc1 | 97 | 100 | 104 | 113 | 104 | 106
< 36 | O=C(O)c1ccc(NCCCCCCCCCCCOc2ccc(C(=O)O)cc2)cc1 | 79 | 91 | 103 | 90 | 91 | 103
< 54 | O=C(O)c1ccc(NCCCCCCCCCCCSCc2ccccc2)cc1 | <52 | 95 | 90 | <55 | <51 | 99
< 57 | CCCCCCCCCCCCCCCCNc1ccc(C(=O)O)cc1 [CETABEN] | <45 | <71 | <54 | <71 | <31 | <72
< 18 | CCCCCCCCCCCCCCC(C)Nc1ccc(C(=O)OCC)cc1 (stereo not given) | <55 | 100 | 93 | 81 | <55 | 107
< 64 | CCCCCCCCCCC(C#N)CCCCCNc1ccc(C(=O)O)cc1 (stereo not given) | <66 | <85 | 83 | 75 | <50 | 96
< 33 | CCCCCC(=O)CCCCCCCCCCNc1ccc(C(=O)O)cc1 | <57 | 89 | <81 | <59 | <42 | 93
0 | CCOC(=O)c1ccc(NCCCCCCCCCCCCCCC(C)C)cc1 | <54 | <85 | <80 | <66 | <58 | 87
< 30 | O=C(O)c1ccc(NCCCCCCCCCCCNc2ccc(C(=O)O)cc2)cc1 | 85 | 94 | 87 | <68 | 84 | 99
< 36 | CCSCCCCCCCCCCCCCCCCNc1ccc(C(=O)O)cc1 | <58 | 91 | 88 | 62 | <59 | 91
4 | CCOC(=O)c1ccc(NCCCCCCCCCCCCCCCC(=O)O)cc1 | 133 | 106 | 106 | 99 | 147 | 100
< 32 | CCOC(=O)c1ccc(NC(=O)CCCCCCCCCCCCCCCBr)cc1 | 94 | 93 | <86 | 84 | 79 | 96
< 21 | CCOC(=O)c1ccc(NC(=O)CCCCCCCCCCCCC[Si](C)(C)C)cc1 | 91 | 98 | 101 | 99 | 97 | 99
13 | CCCCCCCCCCCCCCCCN(C(=O)CCC(=O)O)c1ccc(C(=O)O)cc1 | 90 | 105 | 88 | 84 | 117 | 111
9 | CCOC(=O)c1ccc(NCCCCCCCCCCCCCC(C)C)cc1 | 84 | <89 | <80 | 84 | <61 | 92
 | CCCCCCCCCCCCCCCCN(CS(=O)(=O)[O-])c1ccc(C(=O)[O-])cc1.[Na+].[Na+] | 95 | 91 | <75 | 77 | 89 | 89
 | O=C(O)CCCCCCCCCCCCCCCNc1ccc(C(=O)O)cc1 | 90 | 92 | 92 | 124 | 96 | 101
 | C[Si](C)(C)CCCCCCCCCCCNc1ccc(C(=O)O)cc1 | <54 | <69 | <44 | <67 | <25 | <79
 | O=C([O-])c1ccc(NCCCCCCCCCCCCCCCC(F)(F)F)cc1.[Na+] | <39 | <62 | <34 | <63 | <21 | <75
